Data as given in patent US4847254A, “CNS affecting 5-oxy-3-aminomethyl-dihydro-benzofurans and benzothiophenes” (H. Lundbeck A/S, priority 1987, dated 1989).

What was measured:
DA-receptor = experiment: Contralateral circling in rats with unilateral 6-hydroxy-DA (6-OHDA) lesions; type: in vivo, rat (Wistar); conditions: 6-OHDA-lesioned rats, doses calculated as the free amine
Description: Furthermore, the potency of the drug to induce contralateral circling behaviour in 6-hydroxy-DA-lesioned rats was determined. The specificity of this receptor resembles that of the […] DA receptors mediating motility inhibition.
The experiments were made according to published methods, using rats of the Wistar strain.
Therefore, also the ability of a test compound to induce contralateral circling in rats with unilateral 6-hydroxy-DA lesions was evaluated (loc cit.).

[1] = test system: postsynaptic DA-receptors; conditions: reversal of locomotor depression in DA-depleted rats; statement in words; cited from earlier work
DA-autoreceptors = experiment: Inhibition of spontaneous locomotor activity (motility inhibition) in rats; type: in vivo, rat (Wistar); conditions: doses calculated as the free amine
[2] = test system: postsynaptic DA-receptors; experiment: Reversal of locomotor depression (hypomotility) in reserpine plus alpha-methyl-p-tyrosine pretreated rats; type: in vivo, rat (Wistar)
DA receptors = experiment: DA stimulating properties / effect at pre- and postsynaptic DA receptors (general statement); type: in vivo; conditions: statement in words

Row | Structure (SMILES) | 6-OHDA Contr. Circle. rats (sc) ED50 (DA-receptor) [µmol/kg] | effect in reserpine plus alpha-methyl-p-tyrosine model [1] | Motility Inh. rats (sc) ED50 (DA-autoreceptors) [µmol/kg] | Reserpin α-Mt Rev. rats (sc) ED50 [2] [µmol/kg] | DA stimulating properties (DA receptors)
1 | CCCN1CCC[C@@H](c2cccc(O)c2)C1 [(--)-3-PPP, reference compound] | 0.77 | without effect | 4.2 to 11 | > 67 | –
2 | CCCN(CCC)CC1CCc2ccccc21 (stereo not shown) [Lu 21-091, N,N-Dipropyl-1-indanmethylamine] | > 62 | – | > 62 | – | without any DA stimulating properties
